Experimental data taken from patent US20240299373A1, “IMPROVED USE OF TRADIPITANT IN MOTION SICKNESS” (Vanda Pharmaceuticals Inc., priority 2023, published 2024).

Experiments:
[1] = test system: panel of 74 other receptors, enzymes, and ion channels; experiment: Selectivity panel binding; conditions: test concentration of 1 μM
Source text: Tradipitant is a selective neurokinin-1 (NK-1) receptor antagonist. […] By 3 different measures, tradipitant is also a potent centrally active NK-1 antagonist in vivo.

[2] = target: T1, NK-2 receptor (Homo sapiens, UniProt P21452); experiment: NK-2 receptor inhibition; format: binding
T1 sequence (P21452 1-398): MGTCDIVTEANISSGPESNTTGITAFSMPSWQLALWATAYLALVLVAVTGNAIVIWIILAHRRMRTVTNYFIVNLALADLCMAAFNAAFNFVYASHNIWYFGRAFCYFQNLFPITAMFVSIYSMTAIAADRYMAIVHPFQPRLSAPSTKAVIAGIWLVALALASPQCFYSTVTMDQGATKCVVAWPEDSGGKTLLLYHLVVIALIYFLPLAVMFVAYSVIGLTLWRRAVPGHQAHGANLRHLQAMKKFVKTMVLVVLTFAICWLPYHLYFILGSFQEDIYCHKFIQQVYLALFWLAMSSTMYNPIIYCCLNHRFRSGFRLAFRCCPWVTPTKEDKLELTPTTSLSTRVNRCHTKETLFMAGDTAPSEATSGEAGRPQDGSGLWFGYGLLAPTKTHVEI

[3] = target: T2, NK-3 receptor (Homo sapiens, UniProt P29371); experiment: NK-3 receptor inhibition; format: binding
T2 sequence (P29371 1-465): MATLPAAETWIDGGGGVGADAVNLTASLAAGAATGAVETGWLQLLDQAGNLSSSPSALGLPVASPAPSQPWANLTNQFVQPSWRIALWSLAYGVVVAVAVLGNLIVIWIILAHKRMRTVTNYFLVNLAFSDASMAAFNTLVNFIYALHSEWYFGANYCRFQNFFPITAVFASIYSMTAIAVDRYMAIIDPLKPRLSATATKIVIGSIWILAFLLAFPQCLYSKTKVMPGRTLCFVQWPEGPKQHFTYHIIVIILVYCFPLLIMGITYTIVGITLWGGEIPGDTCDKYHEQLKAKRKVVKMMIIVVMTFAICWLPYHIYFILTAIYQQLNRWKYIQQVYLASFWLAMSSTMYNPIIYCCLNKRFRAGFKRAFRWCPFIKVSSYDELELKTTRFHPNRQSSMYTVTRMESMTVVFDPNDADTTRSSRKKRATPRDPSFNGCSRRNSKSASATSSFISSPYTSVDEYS

[4] = target: T3, NK-1 receptor (Meriones unguiculatus, UniProt Q5DUB1); experiment: NK-1 agonist (GR73632, icv)-induced foot-tapping behavior in gerbils; format: in vivo; conditions: gerbil, 0.1 mg/kg po
T3 construct: centrally acting NK-1 receptor antagonist in vivo in the gerbil; from tissue; host or cells: brain of living Mongolian gerbils
T3 sequence (Q5DUB1 whole entry): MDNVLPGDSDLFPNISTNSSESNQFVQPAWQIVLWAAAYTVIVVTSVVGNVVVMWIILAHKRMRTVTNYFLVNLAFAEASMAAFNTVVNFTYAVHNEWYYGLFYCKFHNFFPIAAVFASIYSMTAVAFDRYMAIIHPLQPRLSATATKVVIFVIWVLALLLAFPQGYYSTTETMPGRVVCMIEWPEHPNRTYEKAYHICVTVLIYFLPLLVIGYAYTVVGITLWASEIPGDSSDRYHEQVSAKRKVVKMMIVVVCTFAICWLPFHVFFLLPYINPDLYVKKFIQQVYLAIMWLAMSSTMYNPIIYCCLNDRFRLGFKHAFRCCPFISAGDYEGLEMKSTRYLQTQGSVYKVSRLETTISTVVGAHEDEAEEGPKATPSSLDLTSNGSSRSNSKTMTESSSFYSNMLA
Protocol: Male Mongolian gerbils (Harlan Sprague Dawley, Indianapolis, IN) weighing 26 to 40 grams are administered the selective neurokinin-1 receptor agonist GR73632 (3 pmol) via direct, vertical, free-hand intracerebroventricular (icy) injection to a depth of 4.5 mm below bregma with a cuffed 27-gauge needle attached to a 50 μl Hamilton syringe. Immediately after injection, animals are placed individually into isolated chambers with pressure-sensitive velocimeter platform floors (San Diego Instruments acoustic startle apparatus) that detect and quantify vibration. The San Diego Instruments “SR” DOS-based computer program is used on a PC to record the number of foot-taps over the following 6 to 10 minutes, beginning 30 seconds after the floor is lightly tapped. […] The total number and average intensity of events over the duration is determined. Total number of taps is analyzed with one-way ANOVA and post-hoc Dunnett's test using JMP statistical software.
A dose-response curve (with doses of 0.3, 1, 3 and 10 pmols, icy) is initially generated with the NK-1 agonist GR73632.
NK-1 antagonists are tested for their ability to attenuate GR73632-induced foot tapping. NK-1 antagonists are administered (po) via oral feeding tube at doses and time points specified in each experiment. […]
NK-1 antagonists are administered at multiple doses (at least 3; one dose per animal) and response to GR73632 is measured. […]

[5] = test system: brain NK-1 receptors; experiment: Occupancy of brain NK-1 receptors with tracer GR205171; format: in vivo; conditions: p.o., tracer GR205171 iv
Protocol: A tracer NK-1 antagonist compound (GR205171) is used to evaluate the ability of other NK-1 antagonists to occupy the brain NK-1 receptors. In these studies, the test compounds are administered orally and the tracer compound is administered intravenously afterward. The occupancy of the NK-1 receptors is evaluated by quantitating the amount of the tracer compound bound to the brain NK-1 receptors after increasing doses of the test compounds.

O=C(c1ccccc1Cl)c1cccnc1-c1nnn(Cc2cc(C(F)(F)F)cc(C(F)(F)F)c2)c1-c1ccncc1 [Tradipitant, {2-[1-(3,5-bistrifluoromethylbenzyl)-5-pyridin-4-yl-1H-[1,2,3]triazol-4-yl]-pyridin-3-yl}-(2-chlorophenyl)-methanone]
inhibition of binding in panel of 74 other receptors, enzymes, and ion channels [1]: ≤ 50%
inhibition at NK-2 receptor [2]: no significant inhibition
inhibition at NK-3 receptor [3]: no significant inhibition
time after administration up to which foot-tapping behavior is significantly inhibited [4]: up to 7 hours
ED50, occupancy of brain NK-1 receptors [5]: 0.04 mg/kg
